{"source": "paper PMC11348189", "about": "“Disorder-to-order active site capping regulates the rate-limiting step of the inositol pathway” (Proceedings of the National Academy of Sciences of the …, 2024)", "key": {"[1]": {"molecular_target": "T1, endogenous fungal MIPS (myo-inositol-1-phosphate synthase) (Thermochaetoides thermophila, UniProt G0SDP4)", "T1 construct": "gene CTHT_0052500; native full-length enzyme in SEC fraction of T. thermophila cell extract, no tag; 240 kDa homotetramer; residues 40-552 resolved", "T1 sequence (G0SDP4 1-552)": "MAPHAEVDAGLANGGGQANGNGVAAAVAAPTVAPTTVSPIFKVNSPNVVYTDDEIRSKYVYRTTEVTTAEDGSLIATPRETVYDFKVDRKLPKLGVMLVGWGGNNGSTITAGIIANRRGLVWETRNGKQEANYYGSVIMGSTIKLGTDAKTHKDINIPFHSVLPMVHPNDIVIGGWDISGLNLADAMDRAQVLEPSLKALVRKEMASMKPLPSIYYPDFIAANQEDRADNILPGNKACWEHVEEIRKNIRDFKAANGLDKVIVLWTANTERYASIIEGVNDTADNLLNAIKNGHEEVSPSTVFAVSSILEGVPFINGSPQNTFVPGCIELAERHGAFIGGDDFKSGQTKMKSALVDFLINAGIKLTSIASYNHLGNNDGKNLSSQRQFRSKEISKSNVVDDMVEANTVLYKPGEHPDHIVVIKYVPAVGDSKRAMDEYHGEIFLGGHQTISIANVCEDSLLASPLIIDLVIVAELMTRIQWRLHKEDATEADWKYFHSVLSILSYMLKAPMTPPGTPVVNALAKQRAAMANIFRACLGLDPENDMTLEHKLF", "test": "cryo-EM structure ([…] Å)", "format": "binding", "settings": "endogenously bound in all four active sites; native SEC fraction, pH 7.4; monovalent cation (probably K+) near NAD"}, "[2]": {"molecular_target": "T1, endogenous fungal MIPS (myo-inositol-1-phosphate synthase)", "test": "phosphate release after periodate oxidation, molybdate, […] nm", "format": "biochemical", "settings": "SEC fraction of cell extract; 5 mM G6P, 0.8 mM NAD+, 14 mM ammonium acetate, 2 mM DTT, 100 mM Tris-acetate pH 8, 37 °C"}}}
{"smiles": "NC(=O)c1ccc[n+]([C@@H]2O[C@H](COP(=O)(O)OP(=O)(O)OC[C@H]3O[C@@H](n4cnc5c(N)ncnc54)[C@H](O)[C@@H]3O)[C@@H](O)[C@H]2O)c1", "note": "[NAD^+]", "values": [{"measurement": "cryo-EM structure (2.48 Å)", "setting": "[1]", "value": "allowing for the unambiguous placement of the cofactor NAD (Fig. 2A)"}]}
{"smiles": "O=P(O)(O)OC[C@H]1OC(O)[C@H](O)[C@@H](O)[C@@H]1O", "note": "(some centres unmarked) [glucose-6-phosphate]", "values": [{"measurement": "phosphate release after periodate oxidation, molybdate, 820 nm", "setting": "[2]", "value": "probe the identified fractions for their capacity to convert G6P to IMP"}]}
